Data reported in the supplement of paper PMC7017272.
± gives the standard deviation of the averaged measurements.

Experiments:
Details in all cases: treatment time: 3 days
UT-SCC-24A = assay: drug sensitivity score (DSS); higher = more sensitive
Description: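 HNSCC cell lines (500 cells/well, 384-well) were cultured on plastic, on top of (2D) or embedded (3D) in Matrigel or human leiomyoma matrix Myogel (500 ug/mL; Myogel 3D mixed with rat collagen I). Cells were treated for 3 days with 5 ten-fold concentrations of each drug, and viability was read by CellTiter-Glo. Suffixes _1/_2/_3 on drug names are replicates.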

UT-SCC-40 [1] = assay: relative IC50 (midpoint of the fitted curve; maximal inhibition may be below 50%); higher = less potent
In short: (§1)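 HPV-negative HNSCC cell lines were plated at 500 cells/well in 384-well plates, either on plastic, on wells coated with Matrigel or Myogel (500 µg/mL), or embedded in Matrigel or Myogel plus rat collagen I. Each compound was tested at five 10-fold concentrations over 3 days. Viability was measured by CellTiter-Glo 2.0 luminescence, and IC50, maximal inhibition and drug sensitivity score came from percent-inhibition dose–response curves fitted in the FIMM pipeline after normalisation to vehicle (0.1% DMSO) and cell-killing control wells.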

UT-SCC-24B [2] = assay: as above
In short: as §1

UT-SCC-44 [3] = assay: as above
In short: as §1

UT-SCC-73 [4] = assay: as above
In short: as §1

UT-SCC-106A [5] = assay: as above
In short: as §1

UT-SCC-8 [6] = assay: as above
In short: as §1

UT-SCC-14 [7] = assay: as above
In short: as §1

UT-SCC-42B [8] = assay: as above
In short: as §1

UT-SCC-42A = assay: maximal % inhibition of viability relative to DMSO; higher = stronger effect
Description: (§2)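 HNSCC cell lines (500 cells/well, 384-well) were cultured on plastic, on top of (2D) or embedded (3D) in Matrigel or human leiomyoma matrix Myogel (500 ug/mL; Myogel 3D mixed with rat collagen I). Cells were treated for 3 days with 5 ten-fold concentrations of each drug, and viability was read by CellTiter-Glo. Viability was normalised to DMSO and benzethonium chloride controls and fitted with the FIMM DSRT pipeline to give IC50 (nM), maximal % inhibition and DSS. Suffixes _1/_2/_3 are replicates. Only inhibition-mode (IC50) fits are kept.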

UT-SCC-40 [9] = assay: as above
Description: as §2

UT-SCC-24B [10] = assay: as above
Description: as §2

UT-SCC-28 = assay: as above
Description: as §2

UT-SCC-81 = assay: as above
Description: as §2

UT-SCC-44 [11] = assay: as above
Description: as §2

UT-SCC-73 [12] = assay: as above
Description: as §2

UT-SCC-106A [13] = assay: as above
Description: as §2

UT-SCC-8 [14] = assay: as above
Description: as §2

UT-SCC-14 [15] = assay: as above
Description: as §2

UT-SCC-42B [16] = assay: as above
Description: as §2

[17] = culture condition: embedded in Matrigel
[18] = culture condition: embedded in Myogel + collagen I
[19] = culture condition: on top of Matrigel
[20] = culture condition: on top of Myogel
[21] = culture condition: plastic 2D (no matrix)

relative IC50 (UT-SCC-40 [1]; [17]): 0.0509 µM | relative IC50 (UT-SCC-40 [1]; [18]): 0.0415 µM | relative IC50 (UT-SCC-40 [1]; [19]): 0.061 µM | relative IC50 (UT-SCC-24B [2]; [17]): 0.169 µM | relative IC50 (UT-SCC-24B [2]; [18]): 0.165 µM | relative IC50 (UT-SCC-24B [2]; [19]): 0.173 µM | relative IC50 (UT-SCC-24B [2]; [20]): 0.177 µM | relative IC50 (UT-SCC-24B [2]; [21]): 0.117 µM | relative IC50 (UT-SCC-44 [3]; [17]): 0.0952 µM | relative IC50 (UT-SCC-44 [3]; [19]): 0.108 µM | relative IC50 (UT-SCC-44 [3]; [20]): 0.151 µM | relative IC50 (UT-SCC-73 [4]; [17]): 0.08 µM | relative IC50 (UT-SCC-73 [4]; [18]): 0.0783 µM | relative IC50 (UT-SCC-73 [4]; [19]): 0.0832 µM | relative IC50 (UT-SCC-73 [4]; [20]): 0.122 µM | relative IC50 (UT-SCC-73 [4]; [21]): 0.117 µM | relative IC50 (UT-SCC-106A [5]; [17]): 0.0568 µM | relative IC50 (UT-SCC-106A [5]; [21]): 0.0563 µM | relative IC50 (UT-SCC-8 [6]; [17]): 0.163 µM | relative IC50 (UT-SCC-8 [6]; [19]): 0.176 µM | relative IC50 (UT-SCC-8 [6]; [20]): 0.139 µM | relative IC50 (UT-SCC-14 [7]; [17]): 0.0742 µM | relative IC50 (UT-SCC-14 [7]; [19]): 0.279 µM | relative IC50 (UT-SCC-42B [8]; [17]): 0.0868 µM | relative IC50 (UT-SCC-42B [8]; [19]): 0.266 µM | relative IC50 (UT-SCC-42B [8]; [20]): 0.268 µM
Compound: Cn1cnc2c(F)c(Nc3ccc(Br)cc3Cl)c(C(=O)NOCCO)cc21 [Selumetinib]
drug sensitivity score (UT-SCC-24A; [17]): 20.7 ± 4.2 DSS | drug sensitivity score (UT-SCC-24A; [18]): 16.4 ± 1.8 DSS | drug sensitivity score (UT-SCC-24A; [19]): 19.4 ± 3.9 DSS | drug sensitivity score (UT-SCC-24A; [20]): 8.63 ± 1.6 DSS | drug sensitivity score (UT-SCC-24A; [21]): 17.9 ± 3.7 DSS | maximal % inhibition of viability (UT-SCC-42A; [17]): 54.2 ± 7.8% | maximal % inhibition of viability (UT-SCC-42A; [18]): 24.9 ± 13% | maximal % inhibition of viability (UT-SCC-42A; [19]): 55.1 ± 8.1% | maximal % inhibition of viability (UT-SCC-42A; [20]): 40.7 ± 4.6% | maximal % inhibition of viability (UT-SCC-42A; [21]): 50.4 ± 6.9% | maximal % inhibition of viability (UT-SCC-40 [9]; [17]): 79.8 ± 1.3% | maximal % inhibition of viability (UT-SCC-40 [9]; [18]): 62.5 ± 8% | maximal % inhibition of viability (UT-SCC-40 [9]; [19]): 75.8 ± 3.5% | maximal % inhibition of viability (UT-SCC-40 [9]; [20]): 52.1 ± 3.1% | maximal % inhibition of viability (UT-SCC-40 [9]; [21]): 56.2 ± 5.7% | maximal % inhibition of viability (UT-SCC-24B [10]; [17]): 87.67 ± 0.5% | maximal % inhibition of viability (UT-SCC-24B [10]; [18]): 84 ± 4.5% | maximal % inhibition of viability (UT-SCC-24B [10]; [19]): 86.67 ± 0.21% | maximal % inhibition of viability (UT-SCC-24B [10]; [20]): 82.5 ± 3.8% | maximal % inhibition of viability (UT-SCC-24B [10]; [21]): 89.73 ± 0.6% | maximal % inhibition of viability (UT-SCC-28; [17]): 38.9 ± 18% | maximal % inhibition of viability (UT-SCC-28; [18]): 39.8 ± 4.3% | maximal % inhibition of viability (UT-SCC-28; [19]): 35.8 ± 9.2% | maximal % inhibition of viability (UT-SCC-28; [21]): 29.4 ± 9.5% | maximal % inhibition of viability (UT-SCC-81; [17]): 87.8 ± 2% | maximal % inhibition of viability (UT-SCC-81; [18]): 39.9 ± 7.8% | maximal % inhibition of viability (UT-SCC-81; [19]): 82.63 ± 0.81% | maximal % inhibition of viability (UT-SCC-81; [20]): 54.2 ± 2.4% | maximal % inhibition of viability (UT-SCC-81; [21]): 68.7 ± 4.2% | maximal % inhibition of viability (UT-SCC-44 [11]; [17]): 66.5 ± 25% | maximal % inhibition of viability (UT-SCC-44 [11]; [18]): 42.2 ± 0.7% | maximal % inhibition of viability (UT-SCC-44 [11]; [19]): 51.6 ± 3.1% | maximal % inhibition of viability (UT-SCC-44 [11]; [20]): 41.2 ± 5.3% | maximal % inhibition of viability (UT-SCC-44 [11]; [21]): 39.8 ± 1.5% | maximal % inhibition of viability (UT-SCC-73 [12]; [17]): 81.9 ± 1.5% | maximal % inhibition of viability (UT-SCC-73 [12]; [18]): 54.4 ± 8.1% | maximal % inhibition of viability (UT-SCC-73 [12]; [19]): 80 ± 1.5% | maximal % inhibition of viability (UT-SCC-73 [12]; [20]): 65.4 ± 1.1% | maximal % inhibition of viability (UT-SCC-73 [12]; [21]): 75.3 ± 1.2% | maximal % inhibition of viability (UT-SCC-106A [13]; [17]): 53.2 ± 6.3% | maximal % inhibition of viability (UT-SCC-106A [13]; [18]): 18.7 ± 4.1% | maximal % inhibition of viability (UT-SCC-106A [13]; [19]): 58.9 ± 5.3% | maximal % inhibition of viability (UT-SCC-106A [13]; [20]): 15.5 ± 4.6% | maximal % inhibition of viability (UT-SCC-106A [13]; [21]): 58.1 ± 4.1% | maximal % inhibition of viability (UT-SCC-8 [14]; [17]): 49.4 ± 8.9% | maximal % inhibition of viability (UT-SCC-8 [14]; [18]): 33.9 ± 6.9% | maximal % inhibition of viability (UT-SCC-8 [14]; [19]): 47.1 ± 5.1% | maximal % inhibition of viability (UT-SCC-8 [14]; [20]): 50.4 ± 5.8% | maximal % inhibition of viability (UT-SCC-8 [14]; [21]): 53.4 ± 9.7% | maximal % inhibition of viability (UT-SCC-14 [15]; [17]): 31 ± 16% | maximal % inhibition of viability (UT-SCC-14 [15]; [18]): 26.1 ± 7.3% | maximal % inhibition of viability (UT-SCC-14 [15]; [19]): 38.6 ± 9% | maximal % inhibition of viability (UT-SCC-14 [15]; [20]): 32.2 ± 8.8% | maximal % inhibition of viability (UT-SCC-14 [15]; [21]): 35.5 ± 14% | maximal % inhibition of viability (UT-SCC-42B [16]; [17]): 67.7 ± 7.4% | maximal % inhibition of viability (UT-SCC-42B [16]; [19]): 46.9 ± 14% | maximal % inhibition of viability (UT-SCC-42B [16]; [20]): 17.3 ± 1.7% | maximal % inhibition of viability (UT-SCC-42B [16]; [21]): 25.6 ± 8.1%
